Results taken from article PMC9639651, “8-Aminoinosine and 8-Aminohypoxanthine Inhibit Purine Nucleoside Phosphorylase and Exert Diuretic and Natriuretic Activity” (The Journal of Pharmacology and Experimental Therapeutics, 2022).

Legend:
[1] = molecular target: T1, recombinant human purine nucleoside phosphorylase (rhPNPase) (Homo sapiens, UniProt P00491); test: biochemical
T1 construct: gene PNP
T1 sequence (P00491 1-289): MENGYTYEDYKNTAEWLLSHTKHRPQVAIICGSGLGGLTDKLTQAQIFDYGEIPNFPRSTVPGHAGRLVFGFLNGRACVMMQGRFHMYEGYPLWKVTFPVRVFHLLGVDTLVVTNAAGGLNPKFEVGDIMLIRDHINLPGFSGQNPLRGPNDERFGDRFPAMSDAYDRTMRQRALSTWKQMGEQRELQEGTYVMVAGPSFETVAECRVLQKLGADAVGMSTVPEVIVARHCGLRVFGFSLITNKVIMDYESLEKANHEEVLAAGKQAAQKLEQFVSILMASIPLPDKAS

[2] = molecular target: T1, recombinant human purine nucleoside phosphorylase (rhPNPase); test: HPLC-UV enzyme kinetics, guanosine as substrate (Ki […] with inosine), competitive inhibition fit; format: biochemical
[3] = molecular target: T1, recombinant human purine nucleoside phosphorylase (rhPNPase); test: HPLC-UV enzyme kinetics, competitive inhibition of inosine metabolism; also Michaelis-Menten turnover to 8-aminohypoxanthine; format: biochemical
[4] = molecular target: T1, recombinant human purine nucleoside phosphorylase (rhPNPase); test: Michaelis-Menten kinetics by HPLC-UV; also inhibits metabolism of 8-aminoinosine; format: biochemical

Compound: Nc1nc2[nH]c(N)nc2c(=O)[nH]1 [8AG, 8-aminoguanine]
- Ki [1]: 2.8 µM

Compound: Nc1nc2nc[nH]c(=O)c2[nH]1 [8AHX, 8-aminohypoxanthine]
- Ki [2]: 20 µM

Compound: Nc1nc2c(O)ncnc2n1[C@@H]1O[C@H](CO)[C@@H](O)[C@H]1O [8AI, 8-aminoinosine]
- Ki [3]: 35 µM

Compound: O=c1[nH]cnc2c1ncn2[C@@H]1O[C@H](CO)[C@@H](O)[C@H]1O [inosine]
- Michaelis-Menten kinetics by HPLC-UV; also inhibits metabolism of 8-aminoinosine [4]: inosine competitively inhibits the metabolism of 8-aminoinosine to 8-aminohypoxanthine
